According to patent US11427561B2, “IRAK4 inhibiting agents” (BIOGEN MA INC., priority 2016, dated 2022):
Counter-ions that a name gives are not always drawn.

How the values were obtained:
[1] = test system: primary human microglia; details: cited from earlier work
[2] = test system: primary human astrocytes; details: cited from earlier work
[3] = test system: astrocytes and microglia; details: cited from earlier work
[4] = target: IRAK4 (Homo sapiens (Human), UniProt Q9NWZ3); test: IRAK-4 biochemical assay, AlphaScreen format (phosphorylation of a biotin labeled peptide); details: 1 nM IRAK4, 1.6 μM peptide, 1 mM ATP, 3.5 h at RT
Chain of IRAK4 (Q9NWZ3 whole entry, species assumed): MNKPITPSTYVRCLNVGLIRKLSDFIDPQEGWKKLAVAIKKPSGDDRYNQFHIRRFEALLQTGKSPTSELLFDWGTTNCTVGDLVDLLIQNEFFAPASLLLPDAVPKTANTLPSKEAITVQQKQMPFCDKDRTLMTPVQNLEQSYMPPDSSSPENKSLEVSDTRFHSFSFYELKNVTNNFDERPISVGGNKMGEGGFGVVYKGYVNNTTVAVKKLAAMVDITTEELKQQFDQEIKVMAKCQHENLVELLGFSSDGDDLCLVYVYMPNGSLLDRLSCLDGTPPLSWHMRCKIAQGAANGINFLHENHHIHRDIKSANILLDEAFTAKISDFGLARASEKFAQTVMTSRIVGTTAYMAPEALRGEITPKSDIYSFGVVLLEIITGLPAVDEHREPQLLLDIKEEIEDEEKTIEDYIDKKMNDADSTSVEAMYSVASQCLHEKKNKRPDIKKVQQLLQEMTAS
Procedure: Biochemical Assay: The biochemical assay is in a AlphaScreen format. The kinase reaction is based on the IRAK-4 phosphorylation of a biotin labeled peptide. The phosphopeptide is incubated with anti-phosphothreonine antibody as well as streptavidin- and protein A-coated beads. Binding of the protein-A coated beads to the antibody and the streptavidin beads to the peptide, leads to an energy transfer from one bead to the other, ultimately producing a luminescent/fluorescent signal.
Generally, the kinase reaction is carried out at 1 nM IRAK4, 1.6 μM peptide, 1 mM ATP in reaction buffer 50 mM Hepes, 60 mM NaCl, 5 mM MgCl2, 0.25 mM MnCl2, 2 mM DTT, 0.01% BSA, 0.01% Tween-20) for 3.5 h at RT.
The compounds described herein were tested for in the above biochemical assay.

[5] = test system: A549 cells; test: Cell-based assay: IL-6 ELISA quantification in A549 cells stimulated with human IL-1beta; details: 2 ng/ml human IL-1beta overnight
Procedure: Cell-based Assay: The cell-based assays is based on IL-6 ELISA quantification. Briefly, A549 cells are cultured in DMEM with 10% FBS medium. When cells reach 80% confluence they are trypsin treated and seeded 180 ul/well in 96-well plate at 2.5×10^4 cells/well. Then, 20 ul of compound serial dilutions (starting at 10 uM, 10 points) are added to the cell plate; incubate for 30 min at 37 C and stimulated with 2 ng/ml human IL-1beta 37 C, 5% CO2 overnight. The next day 100 ul of cell supernatant per well are analyzed on a Human IL-6 Quantikine ELISA kit from R&D Systems.
The compounds described herein were tested for in the above biochemical and cell-based assays.

O=C(Nc1nc2ccccc2n1CCN1CCOCC1)c1cccc([N+](=O)[O-])c1 [IRAK-1/4 inhibitor I]
lipopolysaccharide-induced secretion of monocyte chemotactic protein-1 (MCP-1) [1]: reduced | interleukin-1β-induced secretion of MCP-1 [2]: reduced | interleukin-1β-induced secretion of interleukin 6 [2]: reduced | in vitro uptake of amyloid β (Aβ) [3]: not affected

COc1cccc(-n2ncc3ccc(-c4cccc([C@@H](N)C5CC(O)C5)n4)cc32)n1 (stereo partly drawn) [Compound 35e, (S)-3-(amino(6-(1-(6-methoxypyridin-2-yl)-1H-indazol-6-yl)pyridin-2-yl)methyl)cyclobutan-1-ol]
IC50 [4]: 0.1 to 1 µM | EC50 ([5]; Homo sapiens, A549, A549 cells): 1 to 10 µM

CC1(O)CC([C@H](N)c2cccc(-c3ccc4cnn(-c5cccc(CF)n5)c4c3)n2)C1 (stereo partly drawn) [Compound 35f, 3-((S)-amino(6-(1-(6-(fluoromethyl)pyridin-2-yl)-1H-indazol-6-yl)pyridin-2-yl)methyl)-1-methylcyclobutan-1-ol]
IC50 [4]: ≤ 0.1 µM | EC50 ([5]; Homo sapiens, A549, A549 cells): 1 to 10 µM

N[C@H](c1cccc(-c2ccc3cnn(-c4cccc(C(F)F)n4)c3c2)n1)C1CC(F)(F)C1 [Compound 30, (S)-(3,3-difluorocyclobutyl)(6-(1-(6-(difluoromethyl)pyridin-2-yl)-1H-indazol-6-yl)pyridin-2-yl) methanamine]
IC50 [4]: ≤ 0.1 µM | EC50 ([5]; Homo sapiens, A549, A549 cells): ≤ 1 µM

N[C@H](c1cccc(-c2ccc3cnn(-c4cccc(CF)n4)c3c2)n1)[C@H]1C[C@@H](O)C1 [Compound 16, (1R,3s)-3-((S)-amino(6-(1-(6-(fluoromethyl)pyridin-2-yl)-1H-indazol-6-yl)pyridin-2-yl)methyl)cyclobutanol]
IC50 [4]: ≤ 0.1 µM | EC50 ([5]; Homo sapiens, A549, A549 cells): ≤ 1 µM

N[C@@H](c1cccc(-c2ccc3cnn(-c4cccc(CO)n4)c3c2)n1)[C@H]1C[C@@H](O)C1 [Compound 5, (cis)-3-((R)-amino(6-(1-(6-(hydroxymethyl)pyridin-2-yl)-1H-indazol-6-yl)pyridin-2-yl)methyl)cyclobutan-1-ol hydrochloride]
IC50 [4]: ≤ 0.1 µM | EC50 ([5]; Homo sapiens, A549, A549 cells): ≤ 1 µM

N[C@H](c1cccc(-c2ccc3cnn(-c4cccc(CF)n4)c3c2)n1)C1CC(F)(F)C1 [Compound 29, (S)-(3,3-difluorocyclobutyl)(6-(1-(6-(fluoromethyl)pyridin-2-yl)-1H-indazol-6-yl)pyridin-2-yl)methanamine]
IC50 [4]: ≤ 0.1 µM | EC50 ([5]; Homo sapiens, A549, A549 cells): ≤ 1 µM

N[C@@H](c1cccc(-c2ccc3cnn(-c4cccc(CO)n4)c3c2)n1)C1CC(CO)C1 (stereo partly drawn) [Compound 2, (R)-(6-(6-(6-(amino(3-(hydroxymethyl)cyclobutyl)methyl)pyridin-2-yl)-1H-indazol-1-yl)pyridin-2-yl)methanol]
IC50 [4]: ≤ 0.1 µM | EC50 ([5]; Homo sapiens, A549, A549 cells): ≤ 1 µM

CC1(O)CC([C@H](N)c2cccc(-c3ccc4cnn(-c5cccc(C(F)F)n5)c4c3)n2)C1 (stereo partly drawn) [Compound 35g, 3-((S)-amino(6-(1-(6-(difluoromethyl)pyridin-2-yl)-1H-indazol-6-yl)pyridin-2-yl)methyl)-1-methylcyclobutan-1-ol]
IC50 [4]: ≤ 0.1 µM | EC50 ([5]; Homo sapiens, A549, A549 cells): ≤ 1 µM

CCc1cccc(-n2ncc3ccc(-c4cccc([C@@H](N)[C@H]5C[C@@H](O)C5)n4)cc32)n1 [Compound 12, (1R,3s)-3-((S)-amino(6-(1-(6-ethylpyridin-2-yl)-1H-indazol-6-yl)pyridin-2-yl)methyl)cyclobutanol]
IC50 [4]: ≤ 0.1 µM | EC50 ([5]; Homo sapiens, A549, A549 cells): 1 to 10 µM

CCc1cncc(-n2ncc3ccc(-c4cccc([C@@H](N)[C@H]5C[C@@H](O)C5)n4)cc32)n1 [Compound 15, (1R,3s)-3-((S)-amino(6-(1-(6-ethylpyrazin-2-yl)-1H-indazol-6-yl)pyridin-2-yl)methyl)cyclobutanol]
IC50 [4]: ≤ 0.1 µM | EC50 ([5]; Homo sapiens, A549, A549 cells): ≤ 1 µM

CCOc1cc(-c2cccc([C@@H](N)C3CC(F)(F)C3)n2)cc2c1cnn2-c1cccc(CO)n1 [Compound 34, (S)-(6-(6-(6-(amino(3,3-difluorocyclobutyl)methyl)pyridin-2-yl)-4-ethoxy-1H-indazol-1-yl)pyridin-2-yl)methanol]
IC50 [4]: ≤ 0.1 µM | EC50 ([5]; Homo sapiens, A549, A549 cells): ≤ 1 µM

CCc1ccnc(-n2ncc3ccc(-c4cccc([C@@H](N)[C@H]5C[C@@H](O)C5)n4)cc32)n1 [Compound 11, (1R,3S)-3-((S)-amino(6-(1-(4-ethylpyrimidin-2-yl)-1H-indazol-6-yl)pyridin-2-yl)methyl)cyclobutanol]
IC50 [4]: 0.1 to 1 µM | EC50 ([5]; Homo sapiens, A549, A549 cells): ≤ 1 µM

N[C@H](c1cccc(-c2cc(OCC(F)F)c3cnn(-c4cccc(CO)n4)c3c2)n1)[C@H]1C[C@@H](O)C1 [Compound 24, (1R,3s)-3-((S)-amino(6-(4-(2,2-difluoroethoxy)-1-(6-(hydroxymethyl)pyridin-2-yl)-1H-indazol-6-yl)pyridin-2-yl)methyl)cyclobutanol]
IC50 [4]: ≤ 0.1 µM | EC50 ([5]; Homo sapiens, A549, A549 cells): ≤ 1 µM

N[C@H](c1cccc(-c2ccc3cnn(-c4cccc(CO)n4)c3c2)n1)C1CC(CO)C1 (stereo partly drawn) [Compound 1, (S)-(6-(6-(6-(amino(3-(hydroxymethyl)cyclobutyl)methyl)pyridin-2-yl)-1H-indazol-1-yl)pyridin-2-yl)methanol]
IC50 [4]: ≤ 0.1 µM | EC50 ([5]; Homo sapiens, A549, A549 cells): ≤ 1 µM

N[C@@H](c1cccc(-c2ccc3cnn(-c4cccc(CO)n4)c3c2)n1)[C@H]1C[C@H](O)C1 [Compound 7, trans-3-((R)-amino(6-(1-(6-(hydroxymethyl)pyridin-2-yl)-1H-indazol-6-yl)pyridin-2-yl)methyl)cyclobutanol]
IC50 [4]: ≤ 0.1 µM | EC50 ([5]; Homo sapiens, A549, A549 cells): ≤ 1 µM

CC1(O)CC([C@H](N)c2cccc(-c3ccc4cnn(-c5cccc(CF)n5)c4c3)n2)C1 (stereo partly drawn) [Compound 35i, 3-((S)-amino(6-(1-(6-(fluoromethyl)pyridin-2-yl)-1H-indazol-6-yl)pyridin-2-yl)methyl)-1-methylcyclobutan-1-ol]
IC50 [4]: 0.1 to 1 µM | EC50 ([5]; A549 cells): 1 to 10 µM

CCOc1cc(-c2cccc([C@H](N)C3CC(F)(F)C3)n2)cc2c1cnn2-c1cccc(CO)n1 [Compound 33, (R)-(6-(6-(6-(amino(3,3-difluorocyclobutyl)methyl)pyridin-2-yl)-4-ethoxy-1H-indazol-1-yl)pyridin-2-yl)methanol]
IC50 [4]: ≤ 0.1 µM | EC50 ([5]; Homo sapiens, A549, A549 cells): ≤ 1 µM

N[C@H](c1cccc(-c2ccc3cnn(-c4nccc(CO)n4)c3c2)n1)[C@H]1C[C@@H](O)C1 [Compound 8, (1R,3S)-3-((S)-amino(6-(1-(4-(hydroxymethyl)pyrimidin-2-yl)-1H-indazol-6-yl)pyridin-2-yl)methyl)cyclobutanol]
IC50 [4]: ≤ 0.1 µM | EC50 ([5]; Homo sapiens, A549, A549 cells): ≤ 1 µM
